{"source": "BindingDB's records for doi:10.1016/j.bmcl.2012.03.106", "about": "(Syngenta Crop Protection Muenchwilen, 2012)", "data": [{"assay": "Displacement of [3H]-Tritium-N-(4-chloro-2-methyl-6-(methylcarbamoyl)phenyl)-1-(3-chloropyridin-2-yl)-3-(trifluoromethyl)-1H-pyrazole-5-carboxamide from Myzus persicae (green peach aphid) ryanodine receptor", "units": {"IC50": "µM"}, "values": [{"smiles": "Cc1cc(C#N)cc(C(=O)NC(C)(C)CS(C)(=O)=NC#N)c1NC(=O)c1cc(Br)nn1-c1ncccc1Cl", "note": "(stereo unspecified)", "IC50": 8.09}, {"smiles": "CNC(=O)c1cc(C#N)cc(C)c1NC(=O)c1cc(Br)nn1-c1ncccc1Cl", "note": "[CYANTRANILIPROLE]", "IC50": 2.11}, {"smiles": "Cc1cc(Cl)cc(C(=O)NC(C)(C)CS(C)(=O)=NC#N)c1NC(=O)c1cc(C(F)(F)F)nn1-c1ncccc1Cl", "note": "(stereo unspecified)", "IC50": 4.86}, {"smiles": "CNC(=O)c1cc(Cl)cc(C)c1NC(=O)c1cc(Br)nn1-c1ncccc1Cl", "note": "[3-bromo-N-(4-chloro-2-methyl-6-(methylcarbamoyl)phenyl)-1-(3-chloropyridin-2-yl)-1H-pyrazole-5-carboxamide]", "IC50": 4.13}, {"smiles": "Cc1cc(C#N)cc(C(=O)NC(C)(C)CS(C)(=N)=O)c1NC(=O)c1cc(Br)nn1-c1ncccc1Cl", "note": "(stereo unspecified)", "IC50": 18.5}, {"smiles": "Cc1cc(C(F)(C(F)(F)F)C(F)(F)F)ccc1NC(=O)c1cccc(I)c1C(=O)NC(C)(C)CS(C)(=O)=O", "note": "[CHEBI:38798]", "IC50": 83.5}]}]}
